Common to all, as to type: cell-based
Assay [1] deals with Mycoplasma pneumoniae (MPN). Description: MIC by micro-broth dilution, Mycoplasma pneumoniae. The procedure:
(§1) Organisms used in the analyses included Mycoplasma pneumoniae (MPN), M. hominis (Mh), M. fermentans (Mf), M. genitalium (Mg), M. penetrans (Mp) and Ureaplasma urealyticum (Uu). Minimum Inhibitory Concentrations (MICs) were determined using a micro-broth dilution method. Assays for Ureaplasma urealyticum were performed in 10B media and all other mycoplasma assays were carried out in SP4 medium.
Background: In broth dilution the organism is exposed to a series of concentrations in liquid medium.

The test system of the next assay is M. hominis (Mh). The assay is described as follows: MIC by micro-broth dilution, M. hominis. As to conditions: 49 isolates, SP4 medium. The procedure:
as §1

Another assay deals with M. genitalium (Mg). Description: MIC by micro-broth dilution, M. genitalium. As to conditions: Mycoplasmoides genitalium, 2 isolates, one line per isolate, SP4 medium, read-out: MICs for Mg. The method, then:
as §1

Assay [2] relates to Ureaplasma urealyticum (Uu). The assay is described as follows: MIC by micro-broth dilution, Ureaplasma urealyticum. The procedure:
as §1

The next assay deals with M. penetrans (Mp). Description: MIC by micro-broth dilution, M. penetrans. As to conditions: 1 isolate, SP4 medium; for MIC: read-out: MICs for Mp. The method, then:
as §1

Another assay deals with M. fermentans (Mf). The assay is described as follows: MIC by micro-broth dilution, M. fermentans. Conditions: 19 isolates, SP4 medium. The procedure:
as §1

[3] abbreviates: MPN, 103 isolates, SP4 medium, read-out: MIC 90.
The mark [4] stands for this setting: Metamycoplasma hominis, read-out: MIC 90.
The mark [5] stands for this setting: Uu, 99 isolates, 10B media, read-out: MIC 90.
[6] abbreviates: Mycoplasmopsis fermentans, read-out: MIC 90.

Molecules are shown by their SMILES. Converted amounts (≈) assume the structure as drawn. Where two headings read alike, the source gives them in different places.

`CO/N=C1\CN(c2nc3c(cc2F)c(=O)c(C(=O)O)cn3C2CC2)CC1CN` (racemic) [Gem, (R,S)-7-(3-aminomethyl-4-methoxyiminopyrrolidin-1-yl)-1-cyclopropyl-6-fluoro-4-oxo-1,4-dihydro-1,8-naphthyridine-3-carboxylic acid]: the MIC90 is 0.125 µg/mL (≈ 0.321 µM) in assay [1] (setting [3]), no more than 0.008 µg/mL in the assay on M. hominis (Mh) (setting [4]), 0.25 µg/mL (≈ 0.642 µM) in assay [2] (setting [5]) and no more than 0.008 µg/mL with M. fermentans (Mf) (setting [6]). The MIC was 0.063 µg/mL (≈ 0.162 µM) in the assay on M. genitalium (Mg) and no more than 0.008 µg/mL in the assay with M. penetrans (Mp).

`CC[C@H]1OC(=O)[C@H](C)[C@@H](O[C@H]2C[C@@](C)(OC)[C@@H](O)[C@H](C)O2)[C@H](C)[C@@H](O[C@@H]2O[C@H](C)C[C@H](N(C)C)[C@H]2O)[C@](C)(O)C[C@@H](C)CN(C)[C@H](C)[C@@H](O)[C@]1(C)O` [Azith, azithromycin]: the figures for the MIC90 (in assay [1] (setting [3]); in assay [2] (setting [5]); in the assay on M. fermentans (Mf) (setting [6])) were no more than 0.008 µg/mL, 4 µg/mL (≈ 5.34 µM) and 2 µg/mL (≈ 2.67 µM), respectively. Besides, the MIC in the assay on M. genitalium (Mg) and in the assay with M. penetrans (Mp) was no more than 0.008 µg/mL in each case.

For `CC[C@H]1OC(=O)[C@H](C)[C@@H](O[C@H]2C[C@@](C)(OC)[C@@H](O)[C@H](C)O2)[C@H](C)[C@@H](O[C@@H]2O[C@H](C)C[C@H](N(C)C)[C@H]2O)[C@](C)(OC)C[C@@H](C)C(=O)[C@H](C)[C@@H](O)[C@]1(C)O` [Clar, clarithromycin], the MIC90 was no more than 0.008 µg/mL in assay [1] (setting [3]), 0.063 µg/mL (≈ 0.0842 µM) in assay [2] (setting [5]) and 64 µg/mL (≈ 85.6 µM) in the assay with M. fermentans (Mf) (setting [6]). For the same molecule, the MIC in the assay on M. genitalium (Mg) and with M. penetrans (Mp) was no more than 0.008 µg/mL each time.

On to `CCC[C@@H]1C[C@@H](C(=O)N[C@@H]([C@H]2O[C@H](SC)[C@H](O)[C@@H](O)[C@H]2O)[C@H](C)Cl)N(C)C1` [Clin, clindamycin], for which the figures for the “MIC90” value against M. hominis (Mh) and against M. fermentans (Mf) were “≦0.008 ug/ml” and 0.031 µg/mL (≈ 0.0729 µM), respectively. For the same molecule, the “MICs for Mp” value in the assay with M. penetrans (Mp) is “≦0.008 ug/ml”.

Regarding `Cc1c(F)c(N2CCNC(C)C2)cc2c1c(=O)c(C(=O)O)cn2C1CC1` (stereo not shown) [Grep, grepafloxacin], the MIC90 turned out to be 0.125 µg/mL (≈ 0.348 µM) in assay [1] (setting [3]), 0.031 µg/mL (≈ 0.0863 µM) in the assay with M. hominis (Mh) (setting [4]), 1 µg/mL (≈ 2.78 µM) in assay [2] (setting [5]) and 0.016 µg/mL (≈ 0.0445 µM) in the assay on M. fermentans (Mf) (setting [6]). Also, the figures for the MIC in the assay with M. genitalium (Mg) and with M. penetrans (Mp) were 0.125 µg/mL (≈ 0.348 µM) and 0.016 µg/mL (≈ 0.0445 µM), respectively.

Consider `C[C@H]1COc2c(N3CCN(C)CC3)c(F)cc3c(=O)c(C(=O)O)cn1c23` [Lev, levofloxacin], for which the MIC90 in assay [1] (setting [3]) is 0.5 µg/mL (≈ 1.38 µM); with M. hominis (Mh) (setting [4]) it was 0.25 µg/mL (≈ 0.692 µM); in assay [2] (setting [5]), 1 µg/mL (≈ 2.77 µM); with M. fermentans (Mf) (setting [6]) it was 0.031 µg/mL (≈ 0.0858 µM). Moreover, the MIC in the assay with M. genitalium (Mg) was 0.5 µg/mL (≈ 1.38 µM); with M. penetrans (Mp), 0.031 µg/mL (≈ 0.0858 µM).

With `CN(C)[C@@H]1C(O)=C(C(N)=O)C(=O)[C@@]2(O)C(O)=C3C(=O)c4c(O)cccc4[C@@](C)(O)[C@H]3C[C@@H]12` [Tet, tetracycline], the MIC90 in assay [1] stood at 0.25 µg/mL (≈ 0.563 µM); in the assay on M. hominis (Mh) (setting [4]), 32 µg/mL (≈ 72 µM); in assay [2], 1 µg/mL (≈ 2.25 µM); in the assay with M. fermentans (Mf) (setting [6]) it was 0.063 µg/mL (≈ 0.142 µM). Further, the MIC worked out at 0.063 µg/mL (≈ 0.142 µM) with M. genitalium (Mg) and 0.125 µg/mL (≈ 0.281 µM) in the assay on M. penetrans (Mp).

On to `N[C@@H]1[C@H]2CN(c3nc4c(cc3F)c(=O)c(C(=O)O)cn4-c3ccc(F)cc3F)C[C@@H]12` [Trov, trovafloxacin], for which the “MIC90” value came to 0.031 µg/mL (≈ 0.0745 µM) with M. hominis (Mh) and 0.016 µg/mL (≈ 0.0384 µM) in the assay on M. fermentans (Mf). In the assay with M. penetrans (Mp), the “MICs for Mp” value is given as “≦0.008 ug/ml”.

(Values after US20040229881A1, “Methods of use of antimicrobial compounds against pathogenic mycoplasma bacteria” (SmithKline Beecham Corporation, priority 1999, published 2004).)
